Series [1] concerns the target T1, human neutrophil elastase (HNE) (Homo sapiens, UniProt P08246).
T1 sequence (P08246 30-267): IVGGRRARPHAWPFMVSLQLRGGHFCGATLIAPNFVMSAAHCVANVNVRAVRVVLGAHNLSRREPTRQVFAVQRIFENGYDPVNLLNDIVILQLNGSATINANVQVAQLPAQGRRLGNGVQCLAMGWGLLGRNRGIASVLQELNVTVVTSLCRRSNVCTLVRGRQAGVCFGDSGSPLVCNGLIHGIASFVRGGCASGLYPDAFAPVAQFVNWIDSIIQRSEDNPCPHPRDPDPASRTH
As to the kind of experiment: HNE Ki of CE compounds, tested as described in WO 96/16080. As to conditions: read-out: HNE Ki. It counts as biochemical.

The nature of series [2]: Blood level screening after oral dose. In kind it is in vivo, Sprague-Dawley rats. Particulars: rat, oral gavage 10 mg/kg; for concentration at 3 h: read-out: Plasma Levels (μM) 3 hr; for concentration at 1 h: read-out: Plasma Levels (μM) 1 hr. The procedure:
The inhibitors were dissolved or suspended in polyethylene glycol (PEG), PEG-400 or PEG:H2O:EtOH at a concentration of 10 mg/ml. Unfasted male Sprague-Dawley rats were given an oral dose of this solution by gavage. Rats received 10 mg inhibitor/kg body weight in a volume of 1 ml/kg. After 1,3 or 6 hr., the rats were killed with an overdose of urethane (2.5 g/kg; i.p.) and the blood collected in a heparinized tube via cardiac puncture. Red blood cells were separated from the plasma by centrifugation.
Depending on the inhibitor, one of four organics (ethyl acetate, toluene, isopropyl ether or methyl t-butyl ether) was used to extract the compound from the plasma. Inhibitor concentrations were measured by HPLC or LC/MS analysis.

A word on the pKi: it is the Ki on a negative log10 scale, so that one unit is a factor of ten.

pKi: −log10 of the molar value.

For `Cc1cccc(Cc2nnc(C(=O)[C@@H](NC(=O)CN3C(=O)CN(CCN4CCOCC4)C(=O)[C@H]3Cc3ccccc3)C(C)C)o2)c1` [CE2162, 4-[1-(2-N-Morpholino)ethyl-3-(R)-benzylpiperazine-2,5-dione]-N-[1-(2-[5-(3-methylbenzyl)-1,3,4-oxadiazolyl]carbonyl)-2-(S)-methylpropyl]acetamide], in series [1], the negative-log Ki (pKi) is 7.97. In addition, the concentration at 3 h in series [2] (male, Sprague-Dawley, plasma) is 0.025 µM.

As for `CC(=O)N1c2ccccc2C[C@H]1C(=O)N[C@H](C(=O)c1nnc(Cc2cccc(C)c2)o1)C(C)C` [CE2165, N-Acetyl-2-(L)-(2,3-dihydro-1H-indole)-N-[1-(2-[5-(3-methylbenzyl) 1,3,4-oxadiazolyl]carbonyl)-2-(S)-methylpropyl]amide], the pKi in series [1] was 8.59. Besides, the concentration at 3 h in series [2] (male, Sprague-Dawley, plasma) worked out at 0.067 µM.

Turning to `Cc1cccc(Cc2nnc(C(=O)[C@@H](NC(=O)CN3C(=O)NC4(CCCC4)C3=O)C(C)C)o2)c1` [CE2231, 4-Spirocyclopentane-2,5-imidazolidinedione-N-[1-(2-[5-(3-methylbenzyl)-1,3,4-oxadiazolyl]carbonyl)-2-(S)-methylpropyl]acetamide], the negative logarithm of the Ki (pKi) in series [1] is 7.80. For the same compound, in series [2], the “Plasma Levels (μM) 1 hr” value is 1.226 µM and the “Plasma Levels (μM) 3 hr” value amounted to 0.787 µM. For the same compound, in series [2] (6 hr), the “Plasma Levels (μM) 6 hr” value is 0.531 µM.

As to `CC(C)[C@H](NC(=O)CN1C(=O)NC(c2ccncc2)(N2C(=O)CCC2=O)C1=O)C(=O)c1noc(Cc2cccc(C(F)(F)F)c2)n1` (stereo partly drawn) [CE2209, [4-(R,S)-(4-pyridyl)-4-(R,S)-N-succinimidyl]-2,5-imidazolidinedione-N-[1-(3-[5-(3-trifluoromethylbenzyl)-1,2,4-oxadiazolyl]carbonyl)-2-(S)-methylpropyl]acetamide], the negative-log Ki (pKi) in series [1] was 7.44. In series [2], the “Plasma Levels (μM) 3 hr” value was found to be 0 µM.

“BTD-[1-(2-[5-(3-methylbenzyl)-1,3,4-oxadiazolyl]carbonyl)-2-(S)-methylpropyl]amide [CE2126]”: the pKi in series [1] was 8.30. For the same compound, in series [2], the “Plasma Levels (μM) 3 hr” value worked out at 0.161 µM.

Consider `CC(C)[C@H](NC(=O)[C@@H]1Cc2ccccc2N1C(=O)[C@@H](NC(=O)OCc1ccccc1)C(C)C)C(=O)c1noc(Cc2cccc(C(F)(F)F)c2)n1` [CE2125, (Benzyloxycarbonyl)-L-valyl-2-L-(2,3-dihydro-1H-indole)-N-[1-(3-[5-(3-trifluoromethylbenzyl)-1,2,4-oxadiazolyl]carbonyl)-2-(S)-methylpropyl]amide], for which the pKi in series [1] is 9.40. Moreover, the concentration at 3 h in series [2] (male, Sprague-Dawley, plasma) was 0.011 µM.

`CC(C)OC(=O)N[C@H](C(=O)N1CCC[C@H]1C(=O)N[C@H](C(=O)c1noc(Cc2cccc(C(F)(F)F)c2)n1)C(C)C)C(C)C` [CE2207, Isopropytoxycarbonyl-L-valyl-N-[1-(3-[5-(3-trifluoromethylbenzyl)-1,2,4-oxadiazolyl]carbonyl)-2-(S)-methylpropyl]-L-prolinamide]: in series [1], the pKi was 8.92. Further, the concentration at 3 h in series [2] (male, Sprague-Dawley, plasma) was found to be 0 µM.

In the case of `Cc1cccc(Cc2nnc(C(=O)[C@@H](NC(=O)Cn3c(=O)c(N)cc4ccccc43)C(C)C)o2)c1` [CE2113, 3-(Amino-quinoline-2-one)-N[1-(2-[5-(3-methylbenzyl)-1,3,4-oxadiazolyl]carbonyl)-2-(S)-methylpropyl]acetamide], the pKi in series [1] is 7.41. Besides, in series [2] (male, Sprague-Dawley, plasma), the concentration at 1 h is 1.83 µM and the concentration at 3 h is 0.909 µM.

For the compound `COC(=O)N[C@H](C(=O)N1CCC[C@H]1C(=O)N[C@H](C(=O)c1noc(Cc2cccc(C(F)(F)F)c2)n1)C(C)C)C(C)C` [CE2214, Methyloxycarbonyl-L-valyl-N-[1-(3-[5-(3 trifluoromethylbenzyl)-1,2,4-oxadiazolyl]carbonyl)-2-(S)-methylpropyl]-L-prolinamide], the pKi in series [1] was 9.04. In series [2] (male, Sprague-Dawley, plasma), the concentration at 3 h stood at 0 µM.

As to `Cc1cccc(Cc2nnc(C(=O)[C@@H](NC(=O)Cn3c(=O)ncc4ccccc43)C(C)C)o2)c1` [CE2215, 1,4-Quinazolin-2-one-N-[1-(2-[5-(3-methylbenzyl)-1,3,4-oxadiazolyl]carbonyl)-2-(S)-methylpropyl]acetamide], in series [1], the pKi was 6.79. In addition, in series [2], the “Plasma Levels (μM) 1 hr” value came to 1.16 µM and the “Plasma Levels (μM) 3 hr” value is 0.83 µM. Moreover, the “Plasma Levels (μM) 6 hr” value in series [2] (6 hr) amounted to 0.63 µM.

For the compound `Cc1cccc(Cc2nnc(C(=O)[C@@H](NC(=O)CN3C[C@@H](c4ccccc4)N(C(=O)OCc4ccccc4)CC3=O)C(C)C)o2)c1` [CE2204, 1-Benzyloxycarbonyl-(2-(R)-phenylpiperazin-5-one)-N-[-(2-[5-(3-methylbenzyl)-1,3,4-oxadiazolyl]carbonyl)-2-(S)-methylpropyl]acetamide], in series [1], the pKi was 8.13. For the same compound, the concentration at 3 h in series [2] (male, Sprague-Dawley, plasma) came to 0.48 µM.

`CC(=O)N1CC(=O)N(CC(=O)N[C@H](C(=O)c2nnc(Cc3cccc(C)c3)o2)C(C)C)C(=Cc2ccc(N(C)C)cc2)C1=O` [CE2111, 1-Acetyl-3-(4-dimethylaminobenzylidene) piperazine-2,5-dione-N-[1-(2-[5-(3-methylbenzyl)-1,3,4-oxadiazolyl]carbonyl)-2-(S)-methylpropyl]acetamide]: the pKi in series [1] was 7.70. Further, in series [2] (male, Sprague-Dawley, plasma), the concentration at 3 h came to 0.69 µM.

As to `CC(C)[C@H](NC(=O)CN1C(=O)NC(=Cc2cccnc2)C1=O)C(=O)c1noc(Cc2cccc(C(F)(F)F)c2)n1` [CE2203, [4-(R)-(3-pyridylmethylene)]-2,5-imidazolidinedione-N-[1-(3-[5-(3-trifluoromethylbenzyl)-1,2,4-oxadiazolyl]carbonyl)-2-(S)-methylpropyl]acetamide], in series [1], the pKi is 7.10. The “Plasma Levels (μM) 3 hr” value in series [2] came to 0.004 µM.

On to `Cc1cccc(Cc2nnc(C(=O)[C@@H](NC(=O)CN3C(=O)N[C@@H](CC(C)C)C3=O)C(C)C)o2)c1` [CE2227, 4-(S)-(2-Isobutyl)-2,5-imidazolidinedione-N-[1-(2-[5-(3-methylbenzyl)-1,3,4-oxadiazolyl]carbonyl)-2-(S)-methylpropyl]acetamide], for which the negative-log Ki (pKi) in series [1] is 7.40. For the same compound, in series [2], the “Plasma Levels (μM) 1 hr” value amounted to 1.276 µM and the “Plasma Levels (μM) 3 hr” value was determined as 0.74 µM. For the same compound, the “Plasma Levels (μM) 6 hr” value in series [2] (6 hr) came out at 0.962 µM.

On to `Cc1cccc(Cc2nnc(C(=O)[C@@H](NC(=O)CN(Cc3ccccc3)C(=O)c3ccc[nH]3)C(C)C)o2)c1` [CE2164, (Pyrrole-2-carbonyl)-N-(benzyl)glycyl-N-[1-(2-[5-(3-methylbenzyl)-1,3,4-oxadiazolyl]carbonyl)-2-(S)-methylpropyl]amide], for which the pKi in series [1] was 7.77. Besides, the concentration at 3 h in series [2] (male, Sprague-Dawley, plasma) stood at 0.034 µM.

`COC(=O)N[C@H](C(=O)N1CCC[C@H]1C(=O)N[C@H](C(=O)c1nnc(Cc2cccc(C)c2)o1)C(C)C)C(C)C` [CE2213, Methyloxycarbonyl-L-valyl-N-[1-(2-[5-(3-methylbenzyl)-1,3,4-oxadiazolyl]carbonyl)-2-(S)-methylpropyl]-L-prolinamide]: the pKi in series [1] is 9.85. The concentration at 3 h in series [2] (male, Sprague-Dawley, plasma) stood at 0.19 µM.

With `Cc1cccc(Cc2nnc(C(=O)[C@@H](NC(=O)CN(C(=O)[C@@H](NC(=O)OCc3ccccc3)C(C)C)c3ccccc3)C(C)C)o2)c1` [CE2232, Benzyloxycarbonyl-L-valyl-N-(phenyl)glycyl-N-[1-(2-[5-(3-methylbenzyl)-1,3,4-oxadiazolyl]carbonyl)-2-(S)-methylpropyl]amide], the pKi in series [1] is 9.82. Besides, in series [2] (male, Sprague-Dawley, plasma), the concentration at 1 h amounted to 0.44 µM and the concentration at 3 h is 0.44 µM. In series [2] (male, Sprague-Dawley, plasma, 6 hr, read-out: Plasma Levels (μM) 6 hr), the concentration at 6 h worked out at 0.26 µM.

With `CCc1cccc(Cc2nnc(C(=O)[C@@H](NC(=O)CN3C(=O)NC(=Cc4cccnc4)C3=O)C(C)C)o2)c1` [CE2205, [4-(R)-(3-pyridylmethylene)]-2,5-imidazolidinedione-N-[1-(2-[5-(3-ethylbenzyl)-1,3,4-oxadiazolyl]carbonyl)-2-(S)-methylpropyl]acetamide], the pKi in series [1] was 7.43. Besides, in series [2], the “Plasma Levels (μM) 3 hr” value is 0.475 µM.

Values taken from patent US6656911B2, “Serine protease inhibitors” (Cortech, Inc., priority 1994, dated 2003).
